The values below come from patent US9566222B2, “Peptidyl arginine deiminase 1 and/or 3 activator compounds in the epidermis and uses thereof” (PIERRE FABRE DERMO-COSMETIQUE, priority 2011, dated 2017).

The target of test [1] is T1, PAD1 (Homo sapiens, UniProt Q9ULC6).
T1 construct: purchased Professor Hidenari Takahara (University of Ibaraki, Japan)
T1 sequence (Q9ULC6 1-663): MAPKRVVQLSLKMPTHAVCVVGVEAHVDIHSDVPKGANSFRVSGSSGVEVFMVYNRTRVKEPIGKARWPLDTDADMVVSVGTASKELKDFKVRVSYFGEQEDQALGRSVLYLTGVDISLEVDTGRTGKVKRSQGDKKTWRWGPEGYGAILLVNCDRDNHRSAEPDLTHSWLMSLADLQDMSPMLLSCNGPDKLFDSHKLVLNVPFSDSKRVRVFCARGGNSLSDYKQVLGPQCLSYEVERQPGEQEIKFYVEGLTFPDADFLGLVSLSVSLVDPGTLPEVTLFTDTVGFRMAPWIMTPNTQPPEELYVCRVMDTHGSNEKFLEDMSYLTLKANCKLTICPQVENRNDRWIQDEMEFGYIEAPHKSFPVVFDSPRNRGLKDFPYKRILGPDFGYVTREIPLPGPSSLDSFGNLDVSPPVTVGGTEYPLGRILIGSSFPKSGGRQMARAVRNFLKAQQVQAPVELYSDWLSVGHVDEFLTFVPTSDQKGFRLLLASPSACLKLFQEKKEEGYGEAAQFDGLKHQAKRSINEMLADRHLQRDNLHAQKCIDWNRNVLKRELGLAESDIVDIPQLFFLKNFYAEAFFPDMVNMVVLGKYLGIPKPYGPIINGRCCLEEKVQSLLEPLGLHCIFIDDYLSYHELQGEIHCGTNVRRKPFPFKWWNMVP
The experiment in a line: Deimination of recombinant human filaggrin (Fil-His) by PAD1, immunodetection with AMC anti-citrulline antibody. The class given is biochemical. The note with it: 5 mM streptomycin vs solvent alone (1% dimethylsulfoxide); 3 or 5 min incubation.
Procedure: 25 ng of Fil-His was incubated at 50° C. in the presence of 40 mU of PAD1 or PAD3 in deimination buffer (10 mM CaCl2, 5 mM dithiothreitol, 50 mM Tris-HCl pH 7.4). After a variable incubation period according to the PAD isoform (generally 2 to 5 minutes for PAD1 and 60 to 180 minutes for PAD3), the reaction was quenched by adding sample buffer. The proteins were then separated by SDS-PAGE and immunodetected by AHF11 anti-filaggrin monoclonal antibody and AMC modified anti-citrulline antibody (Millipore, Mollsheim, France) diluted to 1/5000.
The deimination of Fil-His (25 ng) was carried out as described above (paragraph A.3), in deimination buffer (10 mM CaCl2, 5 mM dithiothreitol, 50 mM Tris-HCl pH 7.4) at 50° C. in the presence of 40 mU of PAD1 or PAD3, for 0, 3, 5, 60 and 180 minutes. […] In certain cases, the active agents were diluted in water. After incubation, the proteins of the reaction mixture were immunodetected by AMC antibody. The immunodetection intensity was quantified by densitometry with the NIH ImageJ software.

In test [2] the test system is Reconstructed human epidermises. The experiment in a line: Deiminated proteins in horny layer of reconstructed epidermises after topical gel, immunohistology (AMC). The class given is cell-based. Particulars: gel containing 3% acefylline as sodium salt, 24 hours. Here is the method: Reconstructed human epidermises 0.33 cm^2 in size were grown at the air-liquid interface for 14 days. 5 mg/cm^2 of pre-formulas containing the various active agents was then applied homogeneously to their surface using a brush. Triplicates were carried out for a treatment period of 24 hours at 37° C. The epidermises were then divided: half were frozen in Tissue Tek and then 6 μm cryo-sections were made for immunohistology; the other half were dry frozen at −80° C. for the preparation of total protein extracts before analysis by Western blot.
The deiminated proteins were immunodetected as described above after incubation in modification buffer. Negative controls were prepared systematically by omitting the modification. After washing with water, the sections were incubated with AMC anti-citrulline antibody diluted to 1/1000. Finally, counter-staining was carried out with hematoxylin.

Regarding `[H]/N=C(/N)N[C@H]1[C@H](O)[C@@H](O)[C@H](O[C@@H]2O[C@@H](C)[C@](O)(C=O)[C@H]2O[C@@H]2O[C@@H](CO)[C@H](O)[C@@H](O)[C@@H]2NC)[C@@H](N/C(N)=N\[H])[C@@H]1O` [streptomycin], in test [1], the “Effect on PAD1 (AMC immunodetection intensity of deiminated Fil-His)” value was “inhibited”.

Consider `Cn1c(=O)c2c(ncn2CC(=O)[O-])n(C)c1=O.[Na+]` [acefylline in the form of sodium salt], for which the “Immunodetection intensity (AMC staining) of the horny layer vs control gel” value in test [2] was “stronger”.
